Test results published in PubChem BioAssay (NCI).
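All cell lines were grown in 96-well plates and treated with compound for 48 hours. Definition used: TGI = concentration required for complete inhibition of growth.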

Columns and labels:
Assay in all cases: DTP human tumour cell line panel, 48 h
[1] = test system: 786-0 renal
[2] = test system: CCRF-CEM leukemia
[3] = test system: RXF 393 renal
[4] = test system: SW-620 colon
[5] = test system: HCT-116 colon
[6] = test system: SK-OV-3 ovarian
[7] = test system: NCI-H226 lung
[8] = test system: NCI-H460 lung
[9] = test system: SF-295 CNS
[10] = test system: SK-MEL-5 melanoma
[11] = test system: M19-MEL melanoma
[12] = test system: KM12 colon
[13] = test system: DMS 114 small cell lung
[14] = test system: OVCAR-8 ovarian
[15] = test system: SNB-19 CNS
[16] = test system: SK-MEL-2 melanoma
[17] = test system: SN12C renal
[18] = test system: M14 melanoma
[19] = test system: SR leukemia
[20] = test system: OVCAR-5 ovarian
[21] = test system: HT29 colon
[22] = test system: HL-60(TB) leukemia
[23] = test system: EKVX NSCLC
[24] = test system: SF-268 CNS
[25] = test system: SNB-75 CNS
[26] = test system: UACC-257 melanoma
[27] = test system: DLD-1 colon
[28] = test system: TK-10 renal
[29] = test system: DMS 273 small cell lung
[30] = test system: A498 renal
[31] = test system: CAKI-1 renal
[32] = test system: MOLT-4 leukemia
[33] = test system: U251 CNS
[34] = test system: SK-MEL-28 melanoma
[35] = test system: IGROV1 ovarian
[36] = test system: OVCAR-4 ovarian
[37] = test system: K-562 leukemia
[38] = test system: OVCAR-3 ovarian
[39] = test system: A549 NSCLC
[40] = test system: NCI-H522 lung
[41] = test system: ACHN renal
[42] = test system: UO-31 renal
[43] = test system: NCI-H23 lung
[44] = test system: HOP-62 NSCLC
[45] = test system: HOP-92 NSCLC
[46] = test system: UACC-62 melanoma
[47] = test system: XF 498 CNS
[48] = test system: SF-539 CNS
[49] = test system: SNB-78 CNS
[50] = test system: LXFL 529 NSCLC
[51] = test system: MALME-3M melanoma
[52] = test system: KM20L2 colon
[53] = test system: HCT-15 colon
[54] = test system: RPMI-8226 leukemia
[55] = test system: LOX IMVI melanoma
[56] = test system: HOP-18 NSCLC
[57] = test system: COLO 205 colon
[58] = test system: HCC-2998 colon

SMILES: CC(=O)C1CCN(c2ccccc2)C1 (centres undefined)
- TGI [1]: > 100 µM
- TGI [2]: > 100 µM
- TGI [3]: > 100 µM
- TGI [4]: > 100 µM
- TGI [5]: > 100 µM
- TGI [6]: > 100 µM
- TGI [7]: > 100 µM
- TGI [8]: > 100 µM
- TGI [9]: > 100 µM
- TGI [10]: > 100 µM
- TGI [11]: > 100 µM
- TGI [12]: > 100 µM
- TGI [13]: > 100 µM
- TGI [14]: > 100 µM
- TGI [15]: > 100 µM
- TGI [16]: > 100 µM
- TGI [17]: > 100 µM
- TGI [18]: > 100 µM
- TGI [19]: > 100 µM
- TGI [20]: > 100 µM
- TGI [21]: > 100 µM
- TGI [22]: > 100 µM
- TGI [23]: > 100 µM
- TGI [24]: > 100 µM
- TGI [25]: > 100 µM
- TGI [26]: > 100 µM
- TGI [27]: > 100 µM
- TGI [28]: > 100 µM
- TGI [29]: > 100 µM
- TGI [30]: > 100 µM
- TGI [31]: > 100 µM
- TGI [32]: > 100 µM
- TGI [33]: > 100 µM
- TGI [34]: > 100 µM
- TGI [35]: > 100 µM
- TGI [36]: > 100 µM
- TGI [37]: > 100 µM
- TGI [38]: > 100 µM
- TGI [39]: > 100 µM
- TGI [40]: > 100 µM
- TGI [41]: > 100 µM
- TGI [42]: > 100 µM
- TGI [43]: > 100 µM
- TGI [44]: > 100 µM
- TGI [45]: > 100 µM
- TGI [46]: > 100 µM
- TGI [47]: > 100 µM
- TGI [48]: > 100 µM
- TGI [49]: > 100 µM

SMILES: CN(C)CCNc1ccc2ncn3c4ccccc4c(=O)c1c23
- TGI [1]: 13.9 µM
- TGI [2]: > 100 µM
- TGI [4]: 12.9 µM
- TGI [5]: 12 µM
- TGI [6]: 16.2 µM
- TGI [7]: 6.05 µM
- TGI [8]: 6.86 µM
- TGI [9]: 13.4 µM
- TGI [10]: 11.5 µM
- TGI [11]: 12.6 µM
- TGI [12]: 13.3 µM
- TGI [50]: 19.2 µM
- TGI [13]: 13.7 µM
- TGI [14]: 10.7 µM
- TGI [15]: 47.5 µM
- TGI [16]: 10.1 µM
- TGI [17]: 38.4 µM
- TGI [18]: 13.7 µM
- TGI [51]: 10.2 µM
- TGI [19]: > 100 µM
- TGI [20]: 5.35 µM
- TGI [21]: 10.6 µM
- TGI [22]: > 100 µM
- TGI [24]: 20.2 µM
- TGI [25]: 16 µM
- TGI [26]: 11.5 µM
- TGI [52]: 13.6 µM
- TGI [27]: 12.8 µM
- TGI [53]: 13.9 µM
- TGI [28]: 46.7 µM
- TGI [54]: > 100 µM
- TGI [55]: 2.92 µM
- TGI [30]: 21.1 µM
- TGI [31]: 12.9 µM
- TGI [32]: > 100 µM
- TGI [33]: 15.8 µM
- TGI [34]: 15.2 µM
- TGI [35]: 11.9 µM
- TGI [36]: 5 µM
- TGI [37]: > 100 µM
- TGI [38]: > 100 µM
- TGI [39]: 5.79 µM
- TGI [40]: 5.41 µM
- TGI [41]: 10.5 µM
- TGI [42]: 17.5 µM
- TGI [43]: 14.5 µM
- TGI [44]: 19.4 µM
- TGI [45]: 9.51 µM
- TGI [46]: 12.3 µM
- TGI [56]: 33 µM
- TGI [48]: 16.9 µM
- TGI [57]: 4.03 µM
- TGI [49]: 19.8 µM

SMILES: CN(C)CCNC(=O)c1cccc2c1nc(-c1ccc(F)cc1)c1ccccc12
- TGI [1]: 18.1 µM
- TGI [2]: 11.9 µM
- TGI [3]: 12 µM
- TGI [4]: 14.8 µM
- TGI [5]: 13.4 µM
- TGI [6]: 21.1 µM
- TGI [7]: 9.31 µM
- TGI [8]: 12 µM
- TGI [9]: 19.3 µM
- TGI [10]: 11 µM
- TGI [11]: 18.6 µM
- TGI [12]: 19.3 µM
- TGI [13]: 19.2 µM
- TGI [14]: 18.2 µM
- TGI [15]: 20.2 µM
- TGI [16]: 22.3 µM
- TGI [17]: 16 µM
- TGI [18]: 18.7 µM
- TGI [20]: 16.7 µM
- TGI [21]: 15.1 µM
- TGI [22]: 10.9 µM
- TGI [23]: 21.7 µM
- TGI [24]: 21.8 µM
- TGI [25]: 22.8 µM
- TGI [26]: 11.2 µM
- TGI [27]: 15 µM
- TGI [53]: 13.9 µM
- TGI [28]: 16.6 µM
- TGI [55]: 5.36 µM
- TGI [29]: 13 µM
- TGI [30]: 16.2 µM
- TGI [31]: 16.8 µM
- TGI [32]: 1.77 µM
- TGI [33]: 16.5 µM
- TGI [34]: 20.3 µM
- TGI [35]: 16.8 µM
- TGI [36]: 19.1 µM
- TGI [37]: 11.7 µM
- TGI [38]: 18.7 µM
- TGI [39]: 13.8 µM
- TGI [58]: 16.7 µM
- TGI [41]: 11.4 µM
- TGI [42]: 4.51 µM
- TGI [43]: 18.6 µM
- TGI [44]: 12.9 µM
- TGI [45]: 9.89 µM
- TGI [46]: 14.8 µM
- TGI [56]: 27.4 µM
- TGI [48]: 13.8 µM
- TGI [57]: 14.3 µM
- TGI [49]: 25.7 µM

SMILES: O=C1C(Cl)N(c2c(Cl)cccc2Cl)C1c1c[nH]c2ccccc12 (centres undefined)
- TGI [2]: > 100 µM
- TGI [3]: > 100 µM
- TGI [4]: > 100 µM
- TGI [5]: > 100 µM
- TGI [6]: > 100 µM
- TGI [8]: > 100 µM
- TGI [9]: > 100 µM
- TGI [10]: > 100 µM
- TGI [11]: > 100 µM
- TGI [12]: > 100 µM
- TGI [50]: > 100 µM
- TGI [14]: > 100 µM
- TGI [15]: > 100 µM
- TGI [16]: > 100 µM
- TGI [17]: > 100 µM
- TGI [18]: > 100 µM
- TGI [51]: > 100 µM
- TGI [19]: > 100 µM
- TGI [20]: > 100 µM
- TGI [21]: > 100 µM
- TGI [22]: > 100 µM
- TGI [23]: > 100 µM
- TGI [24]: > 100 µM
- TGI [25]: > 100 µM
- TGI [26]: > 100 µM
- TGI [52]: > 100 µM
- TGI [27]: > 100 µM
- TGI [28]: > 100 µM
- TGI [54]: > 100 µM
- TGI [32]: > 100 µM
- TGI [33]: > 100 µM
- TGI [34]: > 100 µM
- TGI [35]: > 100 µM
- TGI [36]: > 100 µM
- TGI [37]: > 100 µM
- TGI [38]: > 100 µM
- TGI [39]: > 100 µM
- TGI [40]: > 100 µM
- TGI [42]: > 100 µM
- TGI [43]: > 100 µM
- TGI [44]: > 100 µM
- TGI [45]: > 100 µM
- TGI [46]: > 100 µM
- TGI [47]: > 100 µM
- TGI [48]: > 100 µM
- TGI [57]: > 100 µM
